# Measurements from PMC9643474, “The mycotoxin viriditoxin induces leukemia- and lymphoma-specific apoptosis by targeting mitochondrial metabolism” (Cell Death & Disease, 2022).
# Target: T1, complex I (Bos taurus, UniProt P03887+P17694+P42026)
# T1 construct: gene NDUFS2; whole respiratory complex I (about 45 subunits) in isolated bovine heart mitochondria, kit assay
# Assay: MitoCheck complex activity assay, isolated bovine heart mitochondria
# Assay type: biochemical
# Details: 15 min, decreased complex I activity, binding site unknown
# T1 sequence (P17694 34-463): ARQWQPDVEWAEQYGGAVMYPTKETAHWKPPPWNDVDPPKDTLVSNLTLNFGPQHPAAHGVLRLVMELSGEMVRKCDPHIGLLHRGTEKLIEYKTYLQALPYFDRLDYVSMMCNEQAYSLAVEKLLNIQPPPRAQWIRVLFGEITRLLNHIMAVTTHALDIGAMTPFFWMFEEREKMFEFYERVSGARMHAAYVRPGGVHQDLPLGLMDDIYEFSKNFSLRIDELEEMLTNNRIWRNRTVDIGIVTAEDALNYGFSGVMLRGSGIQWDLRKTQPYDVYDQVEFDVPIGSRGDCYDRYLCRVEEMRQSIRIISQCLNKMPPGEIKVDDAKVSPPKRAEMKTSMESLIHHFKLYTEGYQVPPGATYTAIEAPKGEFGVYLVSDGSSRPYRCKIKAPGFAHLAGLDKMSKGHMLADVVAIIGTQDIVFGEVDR
# T1 sequence (P42026 38-216): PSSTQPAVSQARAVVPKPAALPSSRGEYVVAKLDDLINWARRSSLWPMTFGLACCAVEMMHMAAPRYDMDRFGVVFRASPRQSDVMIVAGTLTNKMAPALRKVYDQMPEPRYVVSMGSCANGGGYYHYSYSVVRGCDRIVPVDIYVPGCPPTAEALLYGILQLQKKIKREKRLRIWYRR
# T1 sequence (P03887 whole entry): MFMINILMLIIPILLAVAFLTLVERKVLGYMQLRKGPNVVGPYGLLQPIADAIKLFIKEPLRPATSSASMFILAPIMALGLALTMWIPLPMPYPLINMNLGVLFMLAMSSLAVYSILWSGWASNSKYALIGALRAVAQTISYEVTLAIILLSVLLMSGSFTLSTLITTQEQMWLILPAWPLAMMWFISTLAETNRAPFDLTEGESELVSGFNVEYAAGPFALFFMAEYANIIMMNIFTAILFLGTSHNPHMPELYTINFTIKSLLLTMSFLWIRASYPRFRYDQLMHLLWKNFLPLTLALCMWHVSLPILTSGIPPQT
compound,measurement,value
COC(=O)C[C@@H]1Cc2cc3c(-c4c(OC)cc(O)c5c(O)c6c(cc45)C[C@@H](CC(=O)OC)OC6=O)c(OC)cc(O)c3c(O)c2C(=O)O1 [viriditoxin],"activity, % of DMSO control at 10 μM",we could observe a decreased activity upon treatment with VDT for complex I
